# According to patent US11266715B2, “C3A receptor agonists for use against ischemic brain injury, stroke, traumatic brain injury, spinal cord injury and neurodegenerative disorders” (priority 2016, dated 2022):
# What was measured:
# synapsin I+ puncta = assay: Synapsin I immunostaining of cortex 21 days after stroke; format: in vivo, mouse; details: for larger size of synapsin I+ puncta vs PBS-treated mice: ipsilesional motor cortex
# Method: (§1) For immunofluorescent evaluation, sections were deparaffinized, heated three times for 5 min in a microwave oven in 0.01 M citric buffer (pH 6.0), and blocked in PBS containing 0.05% Tween-20 (Sigma) and 1% in Bovine serum albumin (BSA, Sigma) for GAP-43 and synapsin I staining, 3% normal goat serum for VGLUT1 staining or 4% normal donkey serum for GAP-43 double stainings. Goat anti-synapsin la/b antibody (1:150; Santa Cruz, sc-7379) was followed by biotin-conjugated donkey anti-goat immunoglobulin (Ig) secondary antibody (1:200; Jackson Research Lab, 705-065-147) and Cy3-conjugated streptavidin (1:100; Sigma). Guinea pig anti-VGLUT1 (1:500; Millipore, AB5905) was followed by Alexa Fluor 488 goat anti-guinea pig Ig (1:500; Molecular Probes, A11073). For single staining, mouse anti-GAP-43 antibody (1:1000; Millipore, MAB347), was followed by biotinylated rabbit anti-mouse Ig secondary antibody (1:200; Dako, E0354) and Cy3-conjugated streptavidin (1:100; Sigma). […]
# (§2) Highest signal intensity single plane images of immunostained sections were obtained by laser scanning confocal microscope (LSM TCS SP2, Leica Microsystems, ×63/NA 1.3 objective for synapsin I and GAP-43; and LSM 700, Carl Zeiss for VGLUT1 ×40/NA 1.3) at 1024×1024 pixels resolution. […] Three standard sections per animal in 160 μm intervals were analysed. […]
# (§3) Single-stained images were analysed using MetaMorph® software (Molecular Devices, ver. 2.8.5) to obtain number, average size and intensity of positive punctuate structures per image. […] An experimenter blinded to experimental group performed all image acquisitions and quantifications.
# GAP-43+ puncta = assay: GAP-43 immunostaining of cortex 21 days after stroke; format: in vivo, mouse
# Method: as §1, §2, §3
substance,measurement,setting,value
"C3a: Purified human C3a peptide (Complement Technologies), C3a receptor agonist, amino acid sequence SEQ ID NO: 1",increase in density of synapsin I+ puncta,"synapsin I+ puncta; contralesional somatosensory cortex, P=0.030",20%
same,larger size of synapsin I+ puncta vs PBS-treated mice,"synapsin I+ puncta; deep layers, P<0.0001",8.1%
same,larger size of synapsin I+ puncta vs PBS-treated mice,"synapsin I+ puncta; superficial layers, P=0.0004",9.7%
same,"increase in density of GAP-43+ puncta, ipsilesional motor cortex vs corresponding contralesional region","GAP-43+ puncta; C3a-treated mice, P=0.012",~50%
same,"increase in density of GAP-43+ puncta, ipsilesional motor cortex vs ipsilesional cortex of PBS-treated mice",GAP-43+ puncta; P=0.015,~50%
same,average size of GAP-43+ puncta,GAP-43+ puncta; between experimental groups,did not differ between the experimental groups
